Source: patent publication US11236122B2, “Triterpene amine derivatives” (DFH THERAPEUTICS, priority 2018, dated 2022)
Counter-ions that a name gives are not always drawn.

How the values were obtained:
WT pNL4-3 = assay: CA-SP1 accumulation assay, WT NL4-3; assay type: cell-based, HIV-1; conditions: HeLa or 293T cells
Procedure, shortened: (§1)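 HeLa or 293T cells transfected with proviral clone, maturation inhibitors present through transfection and labeling; at 24 h, [^35S]Met/Cys labeling 2-3 h. Virions pelleted by ultracentrifugation, lysed, CA and CA-SP1 resolved by SDS-PAGE and quantified by phosphorimaging.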

pNL4-3 SP1-V7A = assay: CA-SP1 accumulation assay, SP1-V7A derivative; assay type: cell-based, HIV-1; conditions: HeLa or 293T cells
Procedure, shortened: as §1

[1] = tested on: pNL4-3 SP1-V7A in MT-4 cells; assay: Antiviral assay in MT-4 cells (RT readout), SP1-V7A; assay type: cell-based, HIV-1; conditions: Human immunodeficiency virus 1, MT4, 96 h, read-out: Antiviral Assay IC50 (nM) SP1 V7A
Experimental: (§2) Cell culture, plasmids and transfections. The MT-4 T-cell line was maintained in RPMI-1640 medium supplemented with 10% (vol/vol) fetal bovine serum (FBS), 2 mM glutamine, 100 U/mL penicillin and 100 μg/mL streptomycin at 37° C. in a humidified 5% CO2 atmosphere. HeLa and 293T cells were maintained in Dulbecco's modified Eagle's medium (DMEM) supplemented with 5% (vol/vol) FBS, 2 mM glutamine, 100 U/mL penicillin and 100 μg/mL streptomycin. Molecular clones used in this study were WT pNL4-3 and the derivative encoding a Val-to-Ala mutation at SP1 residue 7, referred to as SP1-V7A. The MT-4 T-cell line was transfected the DEAE/dextran procedure; HeLa and 293T cells were transfected with linear polyethylenimine (L-PEI) or Lipofectamine 2000 (Invitrogen) as recommended by the supplier.
(§3) Antiviral assays. To produce HIV-1 stocks, 293T cells were transfected with WT pNL4-3 or the SP1-V7A derivative and culture supernatants were collected 24 h post transfection. RT-normalized virus supernatants were used to infect MT-4 cells at room temperature for 30 min. Cells were then cultured in the presence of serial dilutions of compounds. […] The IC50s in primary peripheral blood mononuclear cells (PBMCs) were calculated with a multi-clade panel of HIV-1 isolates by Southern Research Institute (Frederick, Md.). […]

WT pNL4-3 in MT-4 cells = assay: Antiviral assay in MT-4 cells (RT readout), WT NL4-3; assay type: cell-based, HIV-1; conditions: Human immunodeficiency virus 1, NL43, MT4, 96 h, read-out: Antiviral Assay IC50 (nM) NL4-3
Experimental: as §2, §3

[2] = Cytotoxicity assay CellTiter-Blue, HeLa; assay type: cell-based; conditions: human; HeLa cells, 4 to 8 days; mean ± SEM, three experiments
Experimental: (§4) Cytotoxicity assays. Cytotoxicity was measured with CellTiter-Blue® Cell Viability Assay according to the manufacturer's protocol (Promega). Two cell lines, MT-4 and HeLa, were used in this assay. Cells were incubated with serial dilution of compounds at 37° C. for 4 to 8 days and subjected to CellTiter-Blue Reagent. The fluorescent signal was measured at 560 nm Ex/590 nm Em by a plate reader (TECAN, Infinite® M1000 PRO). The 50% cytotoxic concentrations (CC50s) were defined as compound concentrations at which the fluorescent signals were reduced by 50%/relative to the no-inhibitor (DMSO only) controls using GraphPad Prism 6 software and are reported in Table 1.

[3] = Cytotoxicity assay CellTiter-Blue, MT-4; assay type: cell-based; conditions: human; MT-4 cells, 4 to 8 days; mean ± SEM, three experiments
Experimental: as §4

in vitro = assay type: cell-based; conditions: human
Experimental: (§5) Human PBMC Preparation. Fresh human PBMCs were isolated from screened donors, seronegative for HIV and HBV (Biological Specialty Corporation, Colmar, Pa.). Cells were pelleted/washed 2-3 times by low speed centrifugation and resuspension in Dulbecco's phosphate buffered saline (PBS) to remove contaminating platelets. The leukophoresed blood was then diluted 1:1 with PBS and layered over 14 mL of Ficoll-Hypaque density gradient (Lymphocyte Separation Medium, Cell Grow #85-072-CL, density 1.078+/−0.002 g/mL) in a 50 mL centrifuge tube and then centrifuged for 30 min at 600×g. Banded PBMCs were gently aspirated from the resulting interface and subsequently washed twice with PBS by low speed centrifugation. After the final wash, cells were enumerated by trypan blue exclusion and re-suspended at 1×10^6 cells/mL in RPMI 1640 supplemented with 15% Fetal Bovine Serum (FBS), 2 mM L-glutamine, 100 U/mL penicillin, […] streptomycin, and 4 μg/mL Phytohemagglutinin (PHA; Sigma, St. Louis, Mo.; cat #L1668). The cells were allowed to incubate for 48-72 h at 37° C. After incubation, PBMCs were centrifuged and resuspended in RPMI 1640 with 15% FBS, L-glutamine, penicillin, streptomycin, non-essential amino acids (MEM/NEAA; Hyclone; cat #SH30238.01), and 20 U/mL recombinant human IL-2 (R&D Systems Inc., Minneapolis, Minn.; cat #202IL). PBMCs were maintained in this medium at a concentration of 1-2×10^6 cells/mL, with twice-weekly medium changes until they were used in the assay protocol. Monocytes-derived-macrophages were depleted from the culture as the result of adherence to the tissue culture flask.
(§6) PBMC Assay. For the standard PBMC assay, PHA stimulated cells from at least two normal donors were pooled (mixed together), diluted in fresh medium to a final concentration of 1×10^6 cells/mL, and plated in the interior wells of a 96 well round bottom microplate at 50 μL/well (5×10^4 cells/well) in a standard formate developed by the Infectious Disease Research Department of the SRI. Pooling (mixing) of mononuclear cells from more than one donor was used to minimize the variability observed between individual donors, which results from quantitative and qualitative differences in HIV infection and overall response to the PHA and IL-2 of primary lymphocyte populations. Each plate contains virus control wells (cells plus virus) and experimental wells (drug plus cells plus virus). Test drug dilutions were prepared at a 2× concentration in microtiter tubes and 100 μL of each concentration was placed in appropriate wells using the standard format. 50 μL of a predetermined dilution of virus stock was placed in each test well (final MOI≈0.1). Separate plates were prepared identically without virus for drug cytotoxicity studies using an MTS assay system (described below; cytotoxicity plates also include compound control wells containing drug plus media without cells to control for colored compounds that affect the MTS assay). The PBMC cultures were maintained for seven days following infection at 37° C., 5% CO2. After this period, cell-free supernatant samples were collected for analysis of reverse transcriptase activity, and compound cytotoxicity was measured by addition of MTS to the separate cytotoxicity plates for determination of cell viability. Wells were also examined microscopically and any abnormalities were noted.
(§7) MTS Staining for PBMC Viability to Measure Cytotoxicity. At assay termination, the uninfected assay plates were stained with the soluble tetrazolium-based dye MTS (CellTiter 96 Reagent, Promega) to determine cell viability and quantify compound toxicity. MTS is metabolized by the mitochondria enzymes of metabolically active cells to yield a soluble formazan product, allowing the rapid quantitative analysis of cell viability and compound cytotoxicity. […] At termination of the assay, […] of MTS reagent was added per well and the microtiter plates were then incubated at 37° C., 5% CO2 to assess cell viability. […]

human PBMCs = assay: in vitro; assay type: cell-based; conditions: 7 days
Experimental: as §5, §6, §7

[4] = tested on: panel of HIV-1 isolates in human PBMCs; assay: PBMC antiviral assay against a panel of HIV-1 isolates (RT activity); assay type: cell-based; conditions: Human immunodeficiency virus 1, PBMC
Experimental: Antiviral assays. To produce HIV-1 stocks, 293T cells were transfected with WT pNL4-3 or the SP1-V7A derivative and culture supernatants were collected 24 h post transfection. RT-normalized virus supernatants were used to infect MT-4 cells at room temperature for 30 min. Cells were then cultured in the presence of serial dilutions of compounds. At 4 d post-infection, the culture supernatants were subjected to RT assay to monitor viral replication. The 50% inhibitory concentrations (IC50s) were defined as compound concentrations that reduced RT levels to 50% those measured in the absence of inhibitor (DMSO only controls) using GraphPad Prism 6 software. The IC50s in primary peripheral blood mononuclear cells (PBMCs) were calculated with a multi-clade panel of HIV-1 isolates by Southern Research Institute (Frederick, Md.). The PBMCs were stimulated with phytohemagglutinin (PHA) and IL-2 prior to use in the antiviral assays.
Virus Isolates. Compound evaluation against a panel of HIV-1 isolates were performed by the Southern Research Institute (SRI). The viruses were chosen to include one isolate from each of the seven HIV-1 Group M envelope subtypes A, B, C, D, E, F, and G, as well as isolates from HIV-1 Groups O and N. In addition, various drug resistant HIV-1 isolates were included for evaluation. The HIV-1 isolates selected include CCR5-tropic and CXCR4-tropic isolates. Unless otherwise noted, all virus isolates were obtained from the NIH AIDS Research and Reference Reagent Program. Virus isolate 1022-48 was obtained from Dr. William A. Schief of Merck Research Laboratories. MDR769 and MDR807 were obtained from Dr. Thomas C. Merigan of Stanford University. A low passage stock of each virus was prepared using fresh human PBMCs and stored in liquid nitrogen. Pre-titered aliquots of each virus were removed from the freezer and thawed rapidly to rt in a biological safety cabinet immediately before use.
as §5
PBMC Assay. For the standard PBMC assay, PHA stimulated cells from at least two normal donors were pooled (mixed together), diluted in fresh medium to a final concentration of 1×10^6 cells/mL, and plated in the interior wells of a 96 well round bottom microplate at 50 μL/well (5×10^4 cells/well) in a standard formate developed by the Infectious Disease Research Department of the SRI. […]

Compound | % CA-SP1 Accumulation 100 nM NL4-3 (WT pNL4-3; 100 nM compound) | % CA-SP1 Accumulation 100 nM SP1 V7A (pNL4-3 SP1-V7A; 100 nM compound) | IC50 [1] [nM] | IC50 (WT pNL4-3 in MT-4 cells) [nM] | CC50 [2] [nM] | CC50 [3] [nM] | % CA-SP1 Accumulation 10 nM NL4-3 (WT pNL4-3; 10 nM compound) [%] | % CA-SP1 Accumulation 10 nM SP1 V7A (pNL4-3 SP1-V7A; 10 nM compound) | CC50 at 7 days (in vitro) [nM] | CC50 (human PBMCs) [nM] | IC50 ([4]; isolate 92RW009, PBMC) [nM] | IC50 ([4]; isolate 92UG001, PBMC) [nM] | IC50 ([4]; isolate 93BR020, PBMC) [nM] | IC50 ([4]; isolate 93BR029, PBMC) [nM] | IC50 ([4]; isolate 93IN101, PBMC) [nM] | IC50 ([4]; isolate 99UGA07412MI, PBMC) [nM] | IC50 ([4]; isolate BCF02, PBMC) [nM] | IC50 ([4]; isolate CMU02, PBMC) [nM] | IC50 ([4]; isolate JV1083, PBMC) [nM]
C=C(C)[C@@H]1CC[C@]2(CCNC3CCN(CCOC)CC3)CC[C@]3(C)[C@H](CC[C@@H]4[C@@]5(C)CC[C@H](OC(=O)CC(C)(C)CC(=O)O)C(C)(C)[C@@H]5CC[C@]43C)[C@@H]12 [Compound 51g, (3β)-17-[2-[[1-(2-Methoxyethyl)piperadin-4-yl]amino]ethyl]-28-norlup-20(29)-en-3-ol, 3-(5-Hydrogen 3,3-Dimethylpentanedioate), Bis(trifluoroacetate) Salt] | 85.0 (2) % | 46.5 (3) % | 19 ± 6 | 2 ± 0.5 | 551 ± 83 | 406 ± 48 |  |  |  |  |  |  |  |  |  |  |  |  | 
C=C(C)[C@@H]1CC[C@]2(CCNCCN3CCN(Cc4ccc5ccccc5c4)CC3)CC[C@]3(C)[C@H](CC[C@@H]4[C@@]5(C)CC[C@H](OC(=O)CC(C)(C)C(=O)O)C(C)(C)[C@@H]5CC[C@]43C)[C@@H]12 [Compound 51r, (3β)-17-[2-[[2-[4-(2-Naphthalenylmethyl)piperazin-1-yl]ethyl]amino]ethyl]-28-norlup-20(29)-en-3-ol, 3-(1-Hydrogen 2,2-Dimethylbutanedioate)] |  |  |  |  |  |  | 44.3 | 34.1 (3) % | > 1000 | > 1000 | > 1000 | 25.5 | 26 | 22.3 | 207 | 370 | 62.3 | > 1000 | > 1000
